“And” between values parts separate entries of the source, which are not always exact repeats. Identical values can stand only once. The source made the active and inactive calls. For most assays here, no stated cut-off is given here; in the data, actives have a measured EC50 and inactives only a lower limit.
Assays:
Streptococcus = assay: GAS UMAA2166 growth inhibition – luminescence, BacTiterGlo, counter-screen for streptokinase expression inhibitor project, dose response (AID 1915); assay type: functional, organism-based;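 further: potency for reduction of bacterial viability or growth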
[1] = target: Heat shock protein HSP 90-alpha (Homo sapiens, UniProt P07900); assay type: functional, organism-based
Streptokinase A = target: T1, Streptokinase A (Streptococcus pyogenes serotype M1, UniProt P10520); assay: viability-normalized secreted streptokinase activity reduction – plasminogen activation absorbance, OD405, dose response (AID 1914); assay type: functional, Streptococcus pyogenes M1 GAS;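 further: secreted streptokinase activity via plasminogen activation per viability signal from cell pellet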
T1 sequence (P10520 whole entry): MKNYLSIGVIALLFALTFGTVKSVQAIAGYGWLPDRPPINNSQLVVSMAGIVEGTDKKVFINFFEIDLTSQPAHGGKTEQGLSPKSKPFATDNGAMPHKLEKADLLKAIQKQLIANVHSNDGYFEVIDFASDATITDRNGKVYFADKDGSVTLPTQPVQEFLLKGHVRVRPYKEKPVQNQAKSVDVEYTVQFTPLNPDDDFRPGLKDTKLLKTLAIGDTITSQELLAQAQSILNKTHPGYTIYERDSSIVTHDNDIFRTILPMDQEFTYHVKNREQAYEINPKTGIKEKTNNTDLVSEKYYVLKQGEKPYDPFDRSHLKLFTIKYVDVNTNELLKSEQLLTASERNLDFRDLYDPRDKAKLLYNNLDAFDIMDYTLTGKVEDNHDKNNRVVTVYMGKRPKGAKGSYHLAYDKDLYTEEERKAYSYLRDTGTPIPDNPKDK

[2] = NIH-3T3 fibroblast cytotoxicity, dose response, cytotoxicity control, cell-based, fluorescence, Alamar Blue, secondary assay (AID 2327); assay type: functional;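 further: NIH-3T3 mouse fibroblasts cultured with fluconazole at 8 µg/mL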
[3] = fluconazole-exposed Candida albicans growth modulators – fluorescence, retest, confirmation (AID 2467); assay type: functional, cell-based
[4] = target: T2, Histone-lysine N-methyltransferase NSD2 (Homo sapiens, UniProt O96028); assay type: biochemical
T2 sequence (O96028 whole entry): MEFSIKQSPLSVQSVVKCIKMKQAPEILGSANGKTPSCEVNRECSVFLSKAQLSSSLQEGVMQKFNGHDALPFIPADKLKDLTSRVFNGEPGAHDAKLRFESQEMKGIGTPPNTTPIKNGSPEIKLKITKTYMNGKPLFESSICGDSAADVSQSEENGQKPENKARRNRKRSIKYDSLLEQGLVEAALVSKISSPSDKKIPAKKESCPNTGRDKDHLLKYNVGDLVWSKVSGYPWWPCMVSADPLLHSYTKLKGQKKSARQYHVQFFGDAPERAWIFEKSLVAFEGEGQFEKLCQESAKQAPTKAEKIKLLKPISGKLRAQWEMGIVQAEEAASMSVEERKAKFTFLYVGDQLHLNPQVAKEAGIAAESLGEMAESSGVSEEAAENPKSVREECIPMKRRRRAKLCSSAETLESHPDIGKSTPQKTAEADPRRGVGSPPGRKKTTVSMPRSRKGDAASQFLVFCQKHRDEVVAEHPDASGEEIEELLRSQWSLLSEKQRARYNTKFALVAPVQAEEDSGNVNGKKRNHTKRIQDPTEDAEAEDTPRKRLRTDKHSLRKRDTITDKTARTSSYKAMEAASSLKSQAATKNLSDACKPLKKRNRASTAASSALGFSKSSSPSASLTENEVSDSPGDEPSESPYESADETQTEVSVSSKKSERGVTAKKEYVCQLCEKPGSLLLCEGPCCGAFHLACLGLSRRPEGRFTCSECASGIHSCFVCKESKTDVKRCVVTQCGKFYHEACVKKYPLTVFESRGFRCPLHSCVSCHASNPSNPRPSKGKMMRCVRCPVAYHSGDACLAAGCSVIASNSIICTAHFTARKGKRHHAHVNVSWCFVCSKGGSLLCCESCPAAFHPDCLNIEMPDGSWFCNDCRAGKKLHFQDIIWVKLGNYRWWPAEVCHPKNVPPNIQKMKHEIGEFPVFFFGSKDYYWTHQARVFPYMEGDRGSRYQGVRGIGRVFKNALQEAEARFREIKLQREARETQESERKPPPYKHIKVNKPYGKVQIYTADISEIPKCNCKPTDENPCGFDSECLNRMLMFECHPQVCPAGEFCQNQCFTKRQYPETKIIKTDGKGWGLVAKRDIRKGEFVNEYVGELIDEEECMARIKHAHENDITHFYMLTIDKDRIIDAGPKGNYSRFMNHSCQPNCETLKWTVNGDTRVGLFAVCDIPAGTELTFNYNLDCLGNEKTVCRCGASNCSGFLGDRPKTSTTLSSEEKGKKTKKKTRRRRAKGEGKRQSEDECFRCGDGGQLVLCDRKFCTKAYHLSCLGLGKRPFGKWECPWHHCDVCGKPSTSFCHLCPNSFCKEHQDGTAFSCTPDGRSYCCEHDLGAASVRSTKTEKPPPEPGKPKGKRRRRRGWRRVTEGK

Row | SMILES | EC50 (Streptococcus; Streptococcus) | AC50 [1] | EC50 (Streptokinase A) | EC50 [2] | EC50 [3] | AC50 [4] | EC50 (Streptococcus)
1 | O=C(Nc1ccccc1Cl)/C(Cl)=C(\Cl)[S+]([O-])c1ccccc1 (stereo not drawn) | 5.14 µM (active) | < 0.195 µM (active) | 331 nM (active) | 3.5 µM (active) | > 38 µM (not active) | – | –
2 | O=C(NC1(O)C(=O)c2ccccc2C1=O)c1ccccc1 | – | – | – | – | – | 6.87 µM (active) | –
3 | Cc1ccc(C)c(S(=O)(=O)/N=C2\C=C(NS(=O)(=O)c3ccccc3)C(=O)c3ccccc32)c1 | – | – | – | – | – | > 20 µM (inactive) | –
4 | CCCCCCCCCCCCCCCCn1cc[n+](C)c1 | 8.54 µM (active) | 3.48 µM (active) | 5.97 µM (active) and > 150 µM (not active) | 149 µM (active) | 1.74 µM (active) | – | 4.64 µM (active)

From ChEMBL document CHEMBL1201862, “PubChem BioAssay data set” (2004)
